In patent publication US20250154173A1 (Merck Sharp & Dohme LLC, priority 2023, published 2025):

biological target: T1, GST-RIPK1 (recombinant GST-RIPK1 kinase domain (residues 1-327)) (Homo sapiens, UniProt Q13546); test: RIPK1-ADP-Glo Enzymatic Assay; format: biochemical; settings: ten-point titration, top compound concentration of 100000 nM; 25 nM GST-RIPK1, 300 μM ATP, 3 μM dephosphorylated-MBP; 30 min pre-incubation, 150 min reaction
T1 construct: recombinant GST-RIPK1 kinase domain (residues 1-327) enzyme produced from baculovirus-transfected Sf21 cells; host or cells: baculovirus-transfected Sf21 insect cells
T1 sequence (Q13546 1-327): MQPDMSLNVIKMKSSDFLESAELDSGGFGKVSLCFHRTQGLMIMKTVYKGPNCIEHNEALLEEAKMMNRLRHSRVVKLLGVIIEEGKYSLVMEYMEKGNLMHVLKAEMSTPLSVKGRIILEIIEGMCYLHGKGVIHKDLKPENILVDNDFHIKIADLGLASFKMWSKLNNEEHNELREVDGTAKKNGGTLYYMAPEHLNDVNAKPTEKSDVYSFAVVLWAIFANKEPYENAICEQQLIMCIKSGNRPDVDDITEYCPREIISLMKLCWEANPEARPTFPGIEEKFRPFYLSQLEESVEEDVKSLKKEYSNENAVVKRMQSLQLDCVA
Description: RIPK1-ADP-Glo Enzymatic Assay
The enzymatic activity of RIPK1 is measured using an assay derived from ADP-Glo kit (TMPromega), which provides a luminescent-based ADP detection system. Specifically, the ADP generated by RIPK1 kinase is proportionally detected as luminescent signals in a homogenous fashion. In this context, the assessment of the inhibitory effect of small molecules (EC50) is measured by the effectiveness of the compounds to inhibit the ATP to ADP conversion by RIPK1.
In this assay, the potency (EC50) of each compound was determined from a ten-point (1:3 serial dilution; top compound concentration of 100000 nM) titration curve using the following outlined procedure. To each well of a white ProxiPlus 384 well-plate, 30 nL of compound (1% DMSO in final assay volume of 3 μL) was dispensed, followed by the addition of 2 μL of 1× assay buffer (25 mM Hepes 7.3, 20 mM MgCl2, 50 mM NaCl, 1 mM DTT, 0.005% Tween20, and 0.02% BSA) containing 37.5 nM of GST-RIPK1 (recombinant GST-RIPK1 kinase domain (residues 1-327) enzyme produced from baculovirus-transfected Sf21 cells: MW=62 kDa). Plates were placed in an ambient temperature humidified chamber for a 30 minutes pre-incubation with compound. Subsequently, each reaction was initiated by the addition of 1 μL 1× assay buffer containing 900 μM ATP and 3 μM dephosphorylated-MBP substrate. The final reaction in each well of 3 μL consists of 25 nM of GST-RIPK1, 300 μM ATP, and 3 μM dephosphorylated-MBP. Kinase reactions were allowed to proceed for 150 minutes prior to adding ADP-Glo reagents per Promega's outlined kit protocol. Dose-response curves were generated by plotting percent effect (% product conversion; Y-axis) vs. Log 10 compound concentrations (X-axis). EC50 values were calculated using a non-linear regression, four-parameters sigmoidal dose-response model.

Row | EC50 [nM] | SMILES
1 | 13 | O=C1N2C(CCC2c2ccc(F)cn2)OC12CC(Oc1ncnn3cccc13)C2 (centres unmarked) [Example 9.65, 5′-(5-fluoropyridin-2-yl)-3-[(pyrrolo[2,1-f][1,2,4]triazin-4-yl)oxy]tetrahydro-3′H-spiro[cyclobutane-1,2′-pyrrolo[2,1-b][1,3]oxazol]-3′-one]
2 | 16 | O=C1N2[C@@H](CC[C@H]2c2cc(F)cc(F)c2)O[C@]12C[C@H](Oc1cccnc1Cl)C2 [Example 9.36, (5′S,7a′R)-3-[(2-chloropyridin-3-yl)oxy]-5′-(3,5-difluorophenyl)tetrahydro-3′H-spiro[cyclobutane-1,2′-pyrrolo[2,1-b][1,3]oxazol]-3′-one]
3 | 595 | O=C1N2[C@@H](CC[C@H]2c2cncc(F)c2)OC12CCC(OCc1ccccc1)CC2 (single isomer, unassigned) [Example 2.2, ((1s or r),4R,5′S,7a′R)-4-(benzyloxy)-5′-(5-fluoropyridin-3-yl)tetrahydro-3′H-spiro[cyclohexane-1,2′-pyrrolo[2,1-b]oxazol]-3′-one]
4 | 26 | CC(OC1CC2(C1)OC1CCC(c3cc(F)cc(F)c3)N1C2=O)c1ccccc1 (single isomer, unassigned) [Example 15.3, ((1S or R),3R,5′S,7a′R)-5′-(3,5-difluorophenyl)-3-((R or S)-1-phenylethoxy)tetrahydro-3′H-spiro[cyclobutane-1,2′-pyrrolo[2,1-b]oxazol]-3′-one]
5 | 11 | CCc1nnc(-c2ccc(COC3CC4(C3)OC3CC[C@@H](c5cnccn5)N3C4=O)cc2)o1 (stereo partly drawn) [Example 18.56, (5′S)-3-{[4-(5-ethyl-1,3,4-oxadiazol-2-yl)phenyl]methoxy}-5′-(pyrazin-2-yl)tetrahydro-3′H-spiro[cyclobutane-1,2′-pyrrolo[2,1-b][1,3]oxazol]-3′-one]
6 | 21 | N#Cc1cc(O[C@H]2C[C@@]3(C2)O[C@@H]2CC[C@@H](c4cnccn4)N2C3=O)ncn1 [Example 9.42, 6-(((5′S,7a′R)-3′-oxo-5′-(pyrazin-2-yl)tetrahydro-3′H-spiro[cyclobutane-1,2′-pyrrolo[2,1-b]oxazol]-3-yl)oxy)pyrimidine-4-carbonitrile]
7 | 141 | CCC(C)Oc1cccc(COC2CC3(C2)O[C@@H]2CC[C@@H](c4cnccn4)N2C3=O)n1 (stereo partly drawn) [Example 18.66, (5′S,7a′R)-3-({6-[(butan-2-yl)oxy]pyridin-2-yl}methoxy)-5′-(pyrazin-2-yl)tetrahydro-3′H-spiro[cyclobutane-1,2′-pyrrolo[2,1-b][1,3]oxazol]-3′-one]
8 | 74 | O=C1N2[C@@H](CC[C@H]2c2ccccc2)OC12CC(Oc1ccncc1F)C2 (stereo partly drawn) [Example 8.7, (5′S,7a′R)-3-[(3-fluoropyridin-4-yl)oxy]-5′-phenyltetrahydro-3′H-spiro[cyclobutane-1,2′-pyrrolo[2,1-b][1,3]oxazol]-3′-one]
9 | 50 | Cc1nnc(-c2cc(O[C@H]3C[C@@]4(C3)O[C@@H]3CC[C@@H](c5cc(F)cc(F)c5)N3C4=O)ncn2)o1 [Example 9.53, (5′S,7a′R)-5′-(3,5-difluorophenyl)-3-((6-(5-methyl-1,3,4-oxadiazol-2-yl)pyrimidin-4-yl)oxy)tetrahydro-3′H-spiro[cyclobutane-1,2′-pyrrolo[2,1-b]oxazol]-3′-one]
10 | 14 | N#Cc1cc(OC2CC3(C2)O[C@@H]2CC[C@@H](c4cccc(F)c4F)N2C3=O)ncn1 (single isomer, unassigned) [Example 9.41, 6-{[(5′S,7a′R)-5′-(2,3-difluorophenyl)-3′-oxotetrahydro-3′H-spiro[cyclobutane-1,2′-pyrrolo[2,1-b][1,3]oxazol]-3-yl]oxy}pyrimidine-4-carbonitrile]
11 | 390 | CC(O[C@H]1C[C@@]2(C1)O[C@@H]1CC[C@@H](c3cc(F)cc(F)c3)N1C2=O)c1ccc(F)cn1 (single isomer, unassigned) [Example 12.1, (1R,3R,5′S,7a′R)-5′-(3,5-difluorophenyl)-3-((R or S)-1-(5-fluoropyridin-2-yl)ethoxy)tetrahydro-3′H-spiro[cyclobutane-1,2′-pyrrolo[2,1-b]oxazol]-3′-one]
12 | 13 | O=C(O[C@H]1C[C@@]2(C1)O[C@@H]1CC[C@@H](c3cc(F)cc(F)c3)N1C2=O)c1ccccc1 [Example 14, (1r,3R,5′S,7a′R)-5′-(3,5-difluorophenyl)-3′-oxotetrahydro-3′H-spiro[cyclobutane-1,2′-pyrrolo[2,1-b]oxazol]-3-yl benzoate]
13 | 20 | N#Cc1cccc(OC2CC3(C2)O[C@@H]2CC[C@@H](c4cnccn4)N2C3=O)c1 (stereo partly drawn) [Example 19.3, 3-{[(5′S,7a′R)-3′-oxo-5′-(pyrazin-2-yl)tetrahydro-3′H-spiro[cyclobutane-1,2′-pyrrolo[2,1-b][1,3]oxazol]-3-yl]oxy}benzonitrile]
14 | 93400 | Cn1cc(C2CCC3OC4(CC(Oc5cc(C#N)ncn5)C4)C(=O)N32)cn1 (single isomer, unassigned) [Example 6.1, 6-((((1r or s),3R,5′(S or R),7a′R)-5′-(1-methyl-1H-pyrazol-4-yl)-3′-oxotetrahydro-3′H-spiro[cyclobutane-1,2′-pyrrolo[2,1-b]oxazol]-3-yl)oxy)pyrimidine-4-carbonitrile]
15 | 145 | CS(=O)(=O)c1ccc(COC2CC3(C2)OC2CC[C@@H](c4cnccn4)N2C3=O)cc1 (stereo partly drawn) [Example 18.17, (5′S)-3-{[4-(methylsulfonyl)phenyl]methoxy}-5′-(pyrazin-2-yl)tetrahydro-3′H-spiro[cyclobutane-1,2′-pyrrolo[2,1-b][1,3]oxazol]-3′-one]
16 | 66 | O=C1N2C(CC[C@H]2c2cnccn2)OC12CC(OCc1cnc3nncn3c1)C2 (stereo partly drawn) [Example 18.2, (5′S)-5′-(pyrazin-2-yl)-3-[([1,2,4]triazolo[4,3-a]pyrimidin-6-yl)methoxy]tetrahydro-3′H-spiro[cyclobutane-1,2′-pyrrolo[2,1-b][1,3]oxazol]-3′-one]
17 | 243 | O=C1N2C(CC[C@H]2c2cnccn2)OC12CC(OCc1ccc3c(c1)CCO3)C2 (stereo partly drawn) [Example 18.92, (5′S)-3-[(2,3-dihydro-1-benzofuran-5-yl)methoxy]-5′-(pyrazin-2-yl)tetrahydro-3′H-spiro[cyclobutane-1,2′-pyrrolo[2,1-b][1,3]oxazol]-3′-one]
18 | 466 | CCOc1ncc(COC2CC3(C2)OC2CC[C@@H](c4cnccn4)N2C3=O)cn1 (stereo partly drawn) [Example 18.8, (5′S)-3-[(2-ethoxypyrimidin-5-yl)methoxy]-5′-(pyrazin-2-yl)tetrahydro-3′H-spiro[cyclobutane-1,2′-pyrrolo[2,1-b][1,3]oxazol]-3′-one]
19 | 34 | O=C1N2C(CC[C@H]2c2cnccn2)OC12CC(OCc1cc3cncnc3s1)C2 (stereo partly drawn) [Example 18.107, (5′S)-5′-(pyrazin-2-yl)-3-(thieno[2,3-d]pyrimidin-6-ylmethoxy)tetrahydro-3′H-spiro[cyclobutane-1,2′-pyrrolo[2,1-b]oxazol]-3′-one]
20 | 329 | CC(OC1CC2(C1)O[C@@H]1CC[C@@H](c3cc(F)cc(F)c3)N1C2=O)c1ncccc1F (single isomer, unassigned) [Example 12.4, (1S or R,3S or R,5′S,7a′R)-5′-(3,5-difluorophenyl)-3-((S or R)-1-(3-fluoropyridin-2-yl)ethoxy)tetrahydro-3′H-spiro[cyclobutane-1,2′-pyrrolo[2,1-b]oxazol]-3′-one]
